Test results: ChEMBL document CHEMBL1687833, “Genetic context and biochemical characterization of the IMP-18 metallo-beta-lactamase identified in a Pseudomonas aeruginosa isolate from the United States” (2011)
Values after ≈ are worked out from the molar mass of the structure shown.

What was measured:
Escherichia coli [1] = assay: Antimicrobial activity against Escherichia coli DH5alpha carrying empty pBC-SK after 18 hrs by microdilution broth method; type: functional; conditions: DH5[alpha]
Pseudomonas aeruginosa [2] = assay: Ratio of Kcat to Km for Pseudomonas aeruginosa strain PS 297 metallo-beta-lactamase IMP-1 expressed in Escherichia coli BL21(DE3) assessed as substrate hydrolysis using 100 uM nitrocefin
Pseudomonas aeruginosa [3] = assay: Activity of Pseudomonas aeruginosa strain PS 297 metallo-beta-lactamase IMP-1 expressed in Escherichia coli BL21(DE3) assessed as substrate hydrolysis using 100 uM nitrocefin
Pseudomonas aeruginosa [4] = assay: Activity of Pseudomonas aeruginosa strain PS 297 metallo-beta-lactamase IMP-18 expressed in Escherichia coli BL21(DE3) assessed as substrate hydrolysis using 100 uM nitrocefin
Escherichia coli [5] = assay: Antimicrobial activity against Escherichia coli DH5alpha carrying Pseudomonas aeruginosa strain PS 297 IMP-1-pLBII after 18 hrs by microdilution broth method; type: functional; conditions: DH5[alpha]
Escherichia coli [6] = assay: Antimicrobial activity against Escherichia coli DH5alpha carrying Pseudomonas aeruginosa strain PS 297 IMP-18-pLBII after 18 hrs by microdilution broth method; type: functional; conditions: DH5[alpha]
Pseudomonas aeruginosa [7] = assay: Ratio of Kcat to Km for Pseudomonas aeruginosa strain PS 297 metallo-beta-lactamase IMP18 expressed in Escherichia coli BL21(DE3) assessed as substrate hydrolysis using 100 uM nitrocefin

In the case of `CC1(C)S[C@@H]2[C@H](NC(=O)[C@H](N)c3ccccc3)C(=O)N2[C@H]1C(=O)O` [AMPICILLIN], the MIC (Escherichia coli [1]) is reported as 4 µg/mL (≈ 11.4 µM), the kcat/Km (Pseudomonas aeruginosa [2]) is reported as 4.8 ×10⁶ /M/s and the Km (Pseudomonas aeruginosa [3]) is reported as 200 µM. It also gave a kcat (Pseudomonas aeruginosa [3]) of 950 s⁻¹, a Km (Pseudomonas aeruginosa [4]) of 103 µM and a kcat (Pseudomonas aeruginosa [4]) of 65 s⁻¹. The MIC (Escherichia coli [5]) was 256 µg/mL (≈ 733 µM), the MIC (Escherichia coli [6]) was 64 µg/mL (≈ 183 µM) and the kcat/Km (Pseudomonas aeruginosa [7]) was 6.3 ×10⁵ /M/s.
`C[C@@H](O)[C@H]1C(=O)N2C(C(=O)O)=C(S[C@@H]3CN[C@H](C(=O)N(C)C)C3)[C@H](C)[C@H]12` [MEROPENEM] gave an MIC (Escherichia coli [1]) of at most 0.015 µg/mL, a kcat/Km (Pseudomonas aeruginosa [2]) of 5 ×10⁵ /M/s and a Km (Pseudomonas aeruginosa [4]) of 8.4 µM. The kcat (Pseudomonas aeruginosa [4]) was 0.05 s⁻¹, the MIC (Escherichia coli [5]) was 2 µg/mL (≈ 5.22 µM) and the MIC (Escherichia coli [6]) was 0.06 µg/mL (≈ 0.156 µM). The kcat/Km (Pseudomonas aeruginosa [7]) was 6 ×10³ /M/s.
For `C[C@H]1[C@H](NC(=O)/C(=N\OC(C)(C)C(=O)O)c2csc(N)n2)C(=O)N1S(=O)(=O)O` [AZTREONAM], the Km (Pseudomonas aeruginosa [3]) was over 1000 µM, the kcat (Pseudomonas aeruginosa [3]) was under 0.01 s⁻¹ and the Km (Pseudomonas aeruginosa [4]) was over 1000 µM. The kcat (Pseudomonas aeruginosa [4]) was under 0.01 s⁻¹.
`CO/N=C(\C(=O)N[C@@H]1C(=O)N2C(C(=O)O)=C(CSc3nc(=O)c(O)nn3C)CS[C@H]12)c1csc(N)n1` [CEFTRIAXONE] was tested, and the MIC (Escherichia coli [1]) was 0.25 µg/mL (≈ 0.451 µM), the MIC (Escherichia coli [5]) was 8 µg/mL (≈ 14.4 µM) and the MIC (Escherichia coli [6]) was 4 µg/mL (≈ 7.21 µM).
Molecule `CO[C@@]1(NC(=O)C2SC(=C(C(N)=O)C(=O)O)S2)C(=O)N2C(C(=O)O)=C(CSc3nnnn3C)CS[C@@H]21` (stereo partly specified) [CEFOTETAN] has an MIC (Escherichia coli [1]) of 0.25 µg/mL (≈ 0.434 µM), an MIC (Escherichia coli [5]) of over 32 µg/mL and an MIC (Escherichia coli [6]) of 32 µg/mL (≈ 55.6 µM).
For `CC(C)(O/N=C(\C(=O)N[C@@H]1C(=O)N2C(C(=O)[O-])=C(C[n+]3ccccc3)CS[C@H]12)c1csc(N)n1)C(=O)O` [CEFTAZIDIME], the MIC (Escherichia coli [1]) was 0.25 µg/mL (≈ 0.457 µM), the kcat/Km (Pseudomonas aeruginosa [2]) was 1.8 ×10⁵ /M/s and the Km (Pseudomonas aeruginosa [3]) was 44 µM. For the same molecule, the kcat (Pseudomonas aeruginosa [3]) was 8 s⁻¹, the Km (Pseudomonas aeruginosa [4]) was 1.3 µM and the kcat (Pseudomonas aeruginosa [4]) was 1 s⁻¹. It also gave an MIC (Escherichia coli [5]) of 32 µg/mL (≈ 58.5 µM), an MIC (Escherichia coli [6]) of 32 µg/mL (≈ 58.5 µM) and a kcat/Km (Pseudomonas aeruginosa [7]) of 7.7 ×10⁵ /M/s.
With `CO/N=C(\C(=O)N[C@@H]1C(=O)N2C(C(=O)O)=C(COC(C)=O)CS[C@H]12)c1csc(N)n1` [CEFOTAXIME] the MIC (Escherichia coli [1]) was 0.25 µg/mL (≈ 0.549 µM), the kcat/Km (Pseudomonas aeruginosa [2]) was 3.5 ×10⁵ /M/s and the Km (Pseudomonas aeruginosa [3]) was 4 µM. It also gave a kcat (Pseudomonas aeruginosa [3]) of 1.3 s⁻¹, a Km (Pseudomonas aeruginosa [4]) of 3 µM and a kcat (Pseudomonas aeruginosa [4]) of 0.7 s⁻¹. For the same molecule, the MIC (Escherichia coli [5]) was 8 µg/mL (≈ 17.6 µM), the MIC (Escherichia coli [6]) was 32 µg/mL (≈ 70.3 µM) and the kcat/Km (Pseudomonas aeruginosa [7]) was 2.3 ×10⁵ /M/s.
In the case of `CC1(C)S[C@@H]2[C@H](NC(=O)Cc3ccccc3)C(=O)N2[C@H]1C(=O)O`, the kcat/Km (Pseudomonas aeruginosa [2]) is reported as 6.2 ×10⁵ /M/s, the Km (Pseudomonas aeruginosa [3]) is reported as 520 µM and the kcat (Pseudomonas aeruginosa [3]) is reported as 320 s⁻¹. For the same molecule, the Km (Pseudomonas aeruginosa [4]) was 90 µM, the kcat (Pseudomonas aeruginosa [4]) was 54 s⁻¹ and the kcat/Km (Pseudomonas aeruginosa [7]) was 6.2 ×10⁵ /M/s.
In the case of `CC(=O)OCC1=C(C(=O)O)N2C(=O)[C@@H](NC(=O)Cc3cccs3)[C@H]2SC1` [CEPHALOTHIN], the MIC (Escherichia coli [1]) is reported as 4 µg/mL (≈ 10.1 µM), the kcat/Km (Pseudomonas aeruginosa [2]) is reported as 2.4 ×10⁶ /M/s and the Km (Pseudomonas aeruginosa [3]) is reported as 21 µM. The Km (Pseudomonas aeruginosa [4]) was 0.1 µM, the kcat (Pseudomonas aeruginosa [4]) was 0.4 s⁻¹ and the MIC (Escherichia coli [5]) was 256 µg/mL (≈ 646 µM). It also gave an MIC (Escherichia coli [6]) of 32 µg/mL (≈ 80.7 µM) and a kcat/Km (Pseudomonas aeruginosa [7]) of 4 ×10⁶ /M/s.
`CO/N=C(\C(=O)N[C@@H]1C(=O)N2C(C(=O)[O-])=C(C[N+]3(C)CCCC3)CS[C@H]12)c1csc(N)n1` gave an MIC (Escherichia coli [1]) of 0.25 µg/mL (≈ 0.52 µM), a kcat/Km (Pseudomonas aeruginosa [2]) of 6.6 ×10⁵ /M/s and a Km (Pseudomonas aeruginosa [3]) of 11 µM. The kcat (Pseudomonas aeruginosa [3]) was 7 s⁻¹, the Km (Pseudomonas aeruginosa [4]) was 0.8 µM and the kcat (Pseudomonas aeruginosa [4]) was 0.35 s⁻¹. For the same molecule, the MIC (Escherichia coli [5]) was 4 µg/mL (≈ 8.32 µM) and the kcat/Km (Pseudomonas aeruginosa [7]) was 4.4 ×10⁵ /M/s.
For `CC1(C)S[C@@H]2[C@H](NC(=O)[C@H](C(=O)O)c3ccsc3)C(=O)N2[C@H]1C(=O)O` [TICARCILLIN], the MIC (Escherichia coli [1]) was 8 µg/mL (≈ 20.8 µM), the kcat/Km (Pseudomonas aeruginosa [2]) was 1.5 ×10³ /M/s and the Km (Pseudomonas aeruginosa [3]) was 740 µM. It also gave a kcat (Pseudomonas aeruginosa [3]) of 1.1 s⁻¹, a Km (Pseudomonas aeruginosa [4]) of 180 µM and a kcat (Pseudomonas aeruginosa [4]) of 30 s⁻¹. For the same molecule, the MIC (Escherichia coli [5]) was 512 µg/mL (≈ 1330 µM), the MIC (Escherichia coli [6]) was 256 µg/mL (≈ 666 µM) and the kcat/Km (Pseudomonas aeruginosa [7]) was 1.5 ×10⁵ /M/s.
`C[C@@H](O)[C@H]1C(=O)N2C(C(=O)O)=C(SCCNC=N)C[C@H]12` [IMIPENEM ANHYDROUS] gave a kcat/Km (Pseudomonas aeruginosa [2]) of 1.2 ×10⁶ /M/s, a Km (Pseudomonas aeruginosa [3]) of 39 µM and a kcat (Pseudomonas aeruginosa [3]) of 46 s⁻¹. The Km (Pseudomonas aeruginosa [4]) was 7 µM, the kcat (Pseudomonas aeruginosa [4]) was 17 s⁻¹ and the MIC (Escherichia coli [5]) was 2 µg/mL (≈ 6.68 µM). The kcat/Km (Pseudomonas aeruginosa [7]) was 2.4 ×10⁶ /M/s.
Molecule `CCN1CCN(C(=O)N[C@@H](C(=O)N[C@@H]2C(=O)N3[C@@H]2SC(C)(C)[C@@H]3C(=O)O)c2ccccc2)C(=O)C1=O` [PIPERACILLIN] has an MIC (Escherichia coli [1]) of 1 µg/mL (≈ 1.93 µM), a kcat/Km (Pseudomonas aeruginosa [2]) of 7.2 ×10⁵ /M/s and a Km (Pseudomonas aeruginosa [4]) of over 200 µM. The kcat (Pseudomonas aeruginosa [4]) was over 10 s⁻¹, the MIC (Escherichia coli [5]) was 1 µg/mL (≈ 1.93 µM) and the MIC (Escherichia coli [6]) was 1 µg/mL (≈ 1.93 µM). For the same molecule, the kcat/Km (Pseudomonas aeruginosa [7]) was 5.1 ×10⁴ /M/s.
`C[C@@H](O)[C@H]1C(=O)N2C(C(=O)O)=C(S[C@@H]3CN[C@H](C(=O)Nc4cccc(C(=O)O)c4)C3)[C@H](C)[C@H]12` was tested, and the MIC (Escherichia coli [1]) was at most 0.015 µg/mL, the kcat/Km (Pseudomonas aeruginosa [2]) was 7.6 ×10⁵ /M/s and the Km (Pseudomonas aeruginosa [3]) was 21 µM. The kcat (Pseudomonas aeruginosa [3]) was 16 s⁻¹, the Km (Pseudomonas aeruginosa [4]) was 2.6 µM and the kcat (Pseudomonas aeruginosa [4]) was 0.03 s⁻¹. It also gave an MIC (Escherichia coli [5]) of 2 µg/mL (≈ 4.21 µM), an MIC (Escherichia coli [6]) of 0.12 µg/mL (≈ 0.252 µM) and a kcat/Km (Pseudomonas aeruginosa [7]) of 1.2 ×10⁴ /M/s.
With `O=C(Cc1cccs1)N[C@@H]1C(=O)N2C(C(=O)O)=C(/C=C/c3ccc([N+](=O)[O-])cc3[N+](=O)[O-])CS[C@H]12` the kcat/Km (Pseudomonas aeruginosa [2]) was 2.3 ×10⁶ /M/s, the Km (Pseudomonas aeruginosa [3]) was 27 µM and the kcat (Pseudomonas aeruginosa [3]) was 63 s⁻¹. It also gave a Km (Pseudomonas aeruginosa [4]) of 9 µM, a kcat (Pseudomonas aeruginosa [4]) of 55 s⁻¹ and a kcat/Km (Pseudomonas aeruginosa [7]) of 6.1 ×10⁶ /M/s.
Molecule `CO/N=C(\C(=O)N[C@@H]1C(=O)N2C(C(=O)O)=C(COC(N)=O)CS[C@H]12)c1ccco1` [CEFUROXIME] has an MIC (Escherichia coli [1]) of 4 µg/mL (≈ 9.43 µM), a Km (Pseudomonas aeruginosa [4]) of 7 µM and a kcat (Pseudomonas aeruginosa [4]) of 0.9 s⁻¹. It also gave an MIC (Escherichia coli [5]) of 128 µg/mL (≈ 302 µM), an MIC (Escherichia coli [6]) of 64 µg/mL (≈ 151 µM) and a kcat/Km (Pseudomonas aeruginosa [7]) of 1.3 ×10⁵ /M/s.
In the case of `CO[C@@]1(NC(=O)Cc2cccs2)C(=O)N2C(C(=O)O)=C(COC(N)=O)CS[C@@H]21` [CEFOXITIN], the MIC (Escherichia coli [1]) is reported as 4 µg/mL (≈ 9.36 µM), the MIC (Escherichia coli [5]) is reported as over 256 µg/mL and the MIC (Escherichia coli [6]) is reported as 256 µg/mL (≈ 599 µM).
Molecule `CO[C@@]1(NC(=O)C(C(=O)O)c2ccsc2)C(=O)N2[C@@H](C(=O)O)C(C)(C)S[C@@H]21` (stereo partly specified) [TEMOCILLIN] has an MIC (Escherichia coli [1]) of 16 µg/mL (≈ 38.6 µM), a kcat/Km (Pseudomonas aeruginosa [2]) of under 100 M⁻¹ s⁻¹ and a Km (Pseudomonas aeruginosa [3]) of over 2000 µM. It also gave a Km (Pseudomonas aeruginosa [4]) of over 1000 µM, a kcat (Pseudomonas aeruginosa [4]) of over 0.75 s⁻¹ and an MIC (Escherichia coli [5]) of 32 µg/mL (≈ 77.2 µM). It also gave an MIC (Escherichia coli [6]) of 16 µg/mL (≈ 38.6 µM) and a kcat/Km (Pseudomonas aeruginosa [7]) of 7.5 ×10² /M/s.
